According to patent US9067894B1, “Compound, composition, and method of activating GIRK potassium channel and use of same for treating conditions of interest” (Vanderbilt University, priority 2013, dated 2015):

Key:
GABAA (flunitrazepam) = assay: Radioligand displacement (Ricerca); assay type: binding, rat; conditions: 10 μM
GIRK1/2 = biological target: T1, GIRK1/2 (Homo sapiens, UniProt P48051+P48549); assay: Thallium flux, pertussis toxin-treated cells co-expressing mGlu8 and GIRK1/2; assay type: cell-based; parameters: host or cells: HEK-293; conditions: 600 ng/ml pertussis toxin; VU0456810 10 μM, glutamate 100 μM
T1 sequence (P48549 1-501): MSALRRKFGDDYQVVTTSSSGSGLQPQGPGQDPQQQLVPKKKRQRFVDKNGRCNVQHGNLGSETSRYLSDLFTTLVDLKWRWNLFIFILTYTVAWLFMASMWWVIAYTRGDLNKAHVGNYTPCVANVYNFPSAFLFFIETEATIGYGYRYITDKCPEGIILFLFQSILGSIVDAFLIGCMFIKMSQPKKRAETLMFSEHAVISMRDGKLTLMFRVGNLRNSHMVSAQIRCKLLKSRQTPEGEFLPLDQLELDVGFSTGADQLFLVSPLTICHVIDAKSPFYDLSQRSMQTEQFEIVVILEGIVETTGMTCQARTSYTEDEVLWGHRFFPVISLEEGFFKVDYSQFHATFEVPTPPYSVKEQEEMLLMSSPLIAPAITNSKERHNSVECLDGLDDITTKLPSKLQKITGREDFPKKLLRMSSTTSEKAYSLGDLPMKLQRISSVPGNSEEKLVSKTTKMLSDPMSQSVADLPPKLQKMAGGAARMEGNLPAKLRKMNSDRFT
T1 sequence (P48051 1-423): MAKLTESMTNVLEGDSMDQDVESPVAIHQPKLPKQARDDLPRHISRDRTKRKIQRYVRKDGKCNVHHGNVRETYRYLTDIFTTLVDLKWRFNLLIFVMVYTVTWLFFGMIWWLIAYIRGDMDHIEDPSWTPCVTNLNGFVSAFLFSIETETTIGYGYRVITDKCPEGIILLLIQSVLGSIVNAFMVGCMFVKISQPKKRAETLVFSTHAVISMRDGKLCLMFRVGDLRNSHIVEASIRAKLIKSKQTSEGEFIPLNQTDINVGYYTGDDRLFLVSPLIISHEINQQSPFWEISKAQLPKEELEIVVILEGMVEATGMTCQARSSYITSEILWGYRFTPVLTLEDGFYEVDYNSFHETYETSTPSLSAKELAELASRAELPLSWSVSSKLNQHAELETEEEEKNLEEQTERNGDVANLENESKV
From the text: Cell Line Construction and Cell Culture. HEK-293 cells co-expressing human GIRK1/2 and rat mGlu8 were generated as previously described (Niswender et al., 2008). A HEK-293 cell line (ATCC, Manassas, Va.) expressing human GIRK1 and human GIRK2 was constructed by transfecting HEK-293 cells with GIRK1 and GIRK2 (Origene, Rockville, Md.) cloned into the pBudCE4.1 vector (Life Technologies, Carlsbad, Calif.) using FuGene 6 (Promega, Madison, Wis.) transfection reagent. Unless otherwise noted, other ion channel-expressing cells were prepared by transfecting HEK-293 cells with individual or combinations of subunits: GIRK1, pCMV6-A-BSD; GIRK2, pCMV6-A-puro; GIRK3, pCMV6-A-hygro; GIRK4, pCMV6-A-AC; Kv7.4, pIRESneo3. The Kir2.1 and hERG-expressing cell lines were made by transfecting T-REx-293 cells (Life Technologies, Carlsbad, Calif.) with Kir2.1 and Kv11.1, respectively, cloned into pcDNA5TO. Monoclonal cell lines were produced by limiting-dilution cloning of antibiotic-resistant cells and functional selection using the thallium flux assay described below. Unless otherwise noted, cells were maintained in Minimal Essential Medium, Alpha Medium (Mediatech, Manassas, Va.) supplemented with 10% fetal bovine serum (Sigma-Aldrich, Saint Louis, Mo.) and GlutaGro (Mediatech, Manassas, Va.), referred to henceforth as cell culture medium. […]

[1] = Pentylenetetrazol (PTZ)-induced seizure model; assay type: in vivo, mouse; conditions: mice, i.p.; VU0456810 60 mg/kg, sodium valproate 150 mg/kg; PTZ 40 mg/kg; 20 minute timeframe
Experimental: After thirty minutes, PTZ was administered intraperitoneally (i.p., 40 mg/kg). Immediately following administration of PTZ, the amount of time elapsed before the first occurrence of tremors, tonic-clonic seizures, convulsion, and death was recorded. All mice were subject to a 20-minute post-[…] cutoff.
In all cases, experiments were conducted in a blind manner with respect to the experimenters. Data were evaluated in Excel using one-tailed, unpaired Student's t-test, assuming populations with unequal variance.

Dopamine D2s = biological target: T2, Dopamine D2s (Homo sapiens, UniProt P14416); assay: Radioligand displacement (Ricerca); assay type: binding
T2 construct: Ricerca
T2 sequence (P14416 1-414 isoform P14416-2): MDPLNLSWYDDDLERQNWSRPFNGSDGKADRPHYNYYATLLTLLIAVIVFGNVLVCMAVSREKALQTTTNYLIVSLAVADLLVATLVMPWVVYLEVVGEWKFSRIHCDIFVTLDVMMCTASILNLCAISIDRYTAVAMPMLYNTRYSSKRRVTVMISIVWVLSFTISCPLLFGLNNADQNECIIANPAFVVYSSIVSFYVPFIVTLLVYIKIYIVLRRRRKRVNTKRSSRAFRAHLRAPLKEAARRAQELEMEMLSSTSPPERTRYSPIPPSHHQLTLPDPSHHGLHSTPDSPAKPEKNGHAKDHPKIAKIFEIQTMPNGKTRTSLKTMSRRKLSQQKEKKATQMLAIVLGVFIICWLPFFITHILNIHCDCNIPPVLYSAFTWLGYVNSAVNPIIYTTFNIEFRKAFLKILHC

Cc1cc(NC(=O)Nc2ccc(F)c(F)c2)n(-c2ccccc2)n1 [VU0456810, 1-(3,4-difluorophenyl)-3-(3-methyl-1-phenyl-1H-pyrazol-5-yl)urea]
% Inhibition (GABAA (flunitrazepam)): 24% | effect of pertussis toxin treatment on evoked thallium flux (GIRK1/2): unable to block | animals experiencing convulsions from PTZ treatment [1]: 5 out of 8 animals did not experience convulsions and significant decrease | animals surviving PTZ treatment [1]: 6 out of 8 animals survived and significant increase | inhibition at 10 µM (Dopamine D2s): 16%
